The values below come from patent publication US20110112135A1, “Imidazo [1,2-A] Pyridine Compounds” (priority 2007, published 2011).

One experiment has as its target T1, human LXRβ (Homo sapiens, UniProt P55055).
T1 construct: biotin (biotinylated); made in house; host or cells: E. coli (crude extract)
T1 sequence (P55055 1-460): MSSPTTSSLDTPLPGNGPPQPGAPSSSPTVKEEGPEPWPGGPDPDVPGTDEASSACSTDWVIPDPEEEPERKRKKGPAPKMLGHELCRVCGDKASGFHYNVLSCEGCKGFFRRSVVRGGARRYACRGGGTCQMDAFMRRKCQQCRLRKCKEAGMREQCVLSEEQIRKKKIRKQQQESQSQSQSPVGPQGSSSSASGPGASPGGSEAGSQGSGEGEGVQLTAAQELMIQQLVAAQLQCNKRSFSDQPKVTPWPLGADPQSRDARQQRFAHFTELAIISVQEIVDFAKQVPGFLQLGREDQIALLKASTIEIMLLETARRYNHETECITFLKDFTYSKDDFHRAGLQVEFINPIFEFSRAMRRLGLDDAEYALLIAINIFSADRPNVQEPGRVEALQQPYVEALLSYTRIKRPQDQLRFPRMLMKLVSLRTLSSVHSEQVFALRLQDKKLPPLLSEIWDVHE
The experiment is described as follows: Ligand-binding test procedure for human LXRβ (3H T0901317 tracer, flash plates). The following applies: biotinylated hLXRβ from E. coli extract; tracer 3H T0901317. The method, then:
I. Ligand-Binding Test Procedure for Human LXRβ.
Receptor source: E. coli extract from cells expressing biotinylated hLXRβ. Extract was made in a similar buffer as above, but with 50 mM TRIS.
(§1) Washed streptavidin and coated flash plates with wash buffer. Diluted receptor extract to give Bmax ˜4000 cpm and add to the wells. Wrapped the plates in aluminum foil and stored them at +4° C. over night.
(§2) Made a dilution series in DMSO of the test ligands. Made a 5 nM solution of the radioactive tracer in buffer. Mixed 250 μl diluted tracer with 5 μl of the test ligand from each concentration of the dilution series. Washed the receptor-coated flash plates. Added 200 μl per well of the ligand/radiolabel mixture to the receptor-coated flash plates. Wrapped the plates in aluminum foil and incubate at +4° C. over night.
(§3) Aspirated wells, and wash the flashed plates. Sealed the plate. Measured the remaining radioactivity in the plate.

The target in a further experiment is T2, human LXRα (Homo sapiens, UniProt Q13133).
T2 construct: biotin (biotinylated); made in house; host or cells: E. coli (crude extract)
T2 sequence (Q13133 1-447): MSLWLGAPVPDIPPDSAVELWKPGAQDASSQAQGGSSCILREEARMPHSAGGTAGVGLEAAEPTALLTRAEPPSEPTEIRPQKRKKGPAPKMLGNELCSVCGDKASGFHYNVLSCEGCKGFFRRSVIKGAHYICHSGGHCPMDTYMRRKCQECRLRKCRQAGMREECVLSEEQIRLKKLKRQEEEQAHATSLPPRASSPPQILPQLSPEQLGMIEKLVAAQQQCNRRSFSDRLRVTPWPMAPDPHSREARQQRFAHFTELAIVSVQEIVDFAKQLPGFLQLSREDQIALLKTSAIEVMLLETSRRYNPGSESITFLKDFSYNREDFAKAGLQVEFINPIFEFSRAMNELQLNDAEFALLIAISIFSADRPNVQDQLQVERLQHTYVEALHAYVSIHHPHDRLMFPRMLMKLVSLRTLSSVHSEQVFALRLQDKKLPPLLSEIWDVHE
The experiment is described as follows: Ligand-binding test procedure for human LXRα (3H T0901317 tracer, flash plates). The following applies: biotinylated hLXRα from E. coli extract; tracer 3H T0901317. The method, then:
II. Ligand-Binding Test Procedure for Human LXRα.
Receptor source: E. coli extract from cells expressing biotinylated hLXRα. Extract was made in a similar buffer as above, but with 50 mM TRIS.
as §1, §2, §3

With `CCc1nc2c(C#N)cccn2c1-c1cccc(OCc2cccc(S(C)(=O)=O)c2)c1` [Example 54, 2-ethyl-3-(3-{[3-(methylsulfonyl)benzyl]oxy}phenyl)imidazo[1,2-a]pyridine-8-carbonitrile], the figures for the IC50 on human LXRβ and on human LXRα were 3060 nM and 41100 nM, respectively.

As to `CCc1nc2c(C#N)cccn2c1-c1cccc(OCc2ccc(S(C)(=O)=O)cc2)c1` [Example 58, 2-ethyl-3-(3-{[4-(methylsulfonyl)benzyl]oxy}phenyl)imidazo[1,2-a]pyridine-8-carbonitrile], the IC50 on human LXRβ and at human LXRα was above 1000 nM throughout.

Consider `CCc1nc2c(Cl)cccn2c1-c1cccc(COc2cccc(S(C)(=O)=O)c2)c1` [Example 109, 8-chloro-2-ethyl-3-(3-{[3-(methylsulfonyl)phenoxy]methyl}phenyl)imidazo[1,2-a]pyridine], for which the IC50 (usually the midpoint of a concentration-inhibition curve) was 268 nM at human LXRβ and above 1000 nM on human LXRα.

Regarding `CC(C)c1nc2c(Cl)cccn2c1-c1cccc(Oc2cccc(CS(C)(=O)=O)c2)c1` [Example 117, 8-chloro-2-isopropyl-3-(3-{3-[(methylsulfonyl)methyl]phenoxy}phenyl)imidazo[1,2-a]pyridine], the figures for the IC50 at human LXRβ and on human LXRα were 460 nM and above 1000 nM, respectively.

Regarding `CC(C)c1nc2c(Cl)cccn2c1-c1cccc(Oc2ccc(S(N)(=O)=O)cc2)c1` [Example 39, 4-(3-(8-chloro-2-isopropylimidazo[1,2-a]pyridin-3-yl)phenoxy)benzenesulfonamide], the IC50 on human LXRβ was 3650 nM; at human LXRα it was 10200 nM.

Take `CCc1nc2c(Cl)cccn2c1-c1cccc(Oc2cccc(S(N)(=O)=O)c2)c1` [Example 47, 3-[3-(8-chloro-2-ethylimidazo[1,2-a]pyridin-3-yl)phenoxy]benzenesulfonamide]: the values for the IC50 at human LXRβ and on human LXRα were 151 nM and 2140 nM, respectively.

For `CCc1nc2c(C(F)(F)F)cccn2c1-c1ccc(Cc2cccc(S(C)(=O)=O)c2)cc1` [Example 101, 2-ethyl-3-{4-[3-(methylsulfonyl)benzyl]phenyl}-8-(trifluoromethyl)imidazo[1,2-a]pyridine], the IC50 on human LXRβ and on human LXRα was above 1000 nM in each case.

For the compound `CCS(=O)(=O)c1cccc(Oc2cccc(-c3c(C(C)C)nc4c(C(F)(F)F)cccn34)c2)c1` [Example 26, 2-isopropyl-3-(3-(3-(ethylsulfonyl)phenoxy)phenyl)-8-(trifluoromethyl)imidazo[1,2-a]pyridine], the IC50 was determined as 5 nM at human LXRβ and 221 nM at human LXRα.

With `CC(C)c1nc2c(Cl)cccn2c1-c1cccc(OCc2cccc(S(C)(=O)=O)c2)c1` [Example 53, 8-chloro-2-isopropyl-3-(3-{[3-(methylsulfonyl)benzyl]oxy}phenyl)imidazo[1,2-a]pyridine], the values for the IC50 on human LXRβ and on human LXRα were 137 nM and 1860 nM, respectively.

Regarding `CCC(C)S(=O)(=O)c1ccc(Oc2cccc(-c3c(C)nc4c(C(F)(F)F)cccn34)c2)cc1` (centres unmarked) [Example 16, 3-{3-[4-(sec-butylsulfonyl)phenoxy]phenyl}-2-methyl-8-(trifluoromethyl)imidazo[1,2-a]pyridine], the IC50 amounted to 508 nM at human LXRβ and 4770 nM at human LXRα.

Turning to `CCCS(=O)(=O)c1cccc(Oc2cccc(-c3c(C)nc4c(C(F)(F)F)cccn34)c2)c1` [Example 11, 2-methyl-3-(3-(3-(propylsulfonyl)phenoxy)phenyl)-8-(trifluoromethyl)imidazo[1,2-a]pyridine], the results for the IC50 at human LXRβ and on human LXRα were 143 nM and 1480 nM, respectively.

As for `Cc1nc2c(C(F)(F)F)cccn2c1-c1cccc(Oc2ccc(C#N)c(S(C)(=O)=O)c2)c1` [Example 142, 2-(methylsulfonyl)-4-{3-[2-methyl-8-(trifluoromethyl)imidazo[1,2-a]pyridin-3-yl]phenoxy}benzonitrile], the IC50 at human LXRβ and at human LXRα was above 1000 nM throughout.

`CS(=O)(=O)c1cccc(Oc2cccc(-c3c(Cl)nc4c(C(F)(F)F)cccn34)c2)c1` [Example 85, 2-chloro-3-{3-[3-(methylsulfonyl)phenoxy]phenyl}-8-(trifluoromethyl)imidazo[1,2-a]pyridine]: the IC50 on human LXRβ came out at 83 nM; at human LXRα, 2750 nM.
